Source: publication PMC6442233, “SAR and molecular mechanism studies of monoamine oxidase inhibition by selected chalcone analogs” (Journal of Enzyme Inhibition and Medicinal Chemistry, 2019)

Key:
[1] = biological target: T1, human MAO-A (Homo sapiens, UniProt P21397); assay: Reversibility of MAO-A inhibition by dialysis; type: biochemical; conditions: for Reversibility of MAO-A inhibition: dialysis 24 h, inhibitor at 4 × IC50
T1 construct: purchased Sigma-Aldrich
T1 sequence (P21397 1-527): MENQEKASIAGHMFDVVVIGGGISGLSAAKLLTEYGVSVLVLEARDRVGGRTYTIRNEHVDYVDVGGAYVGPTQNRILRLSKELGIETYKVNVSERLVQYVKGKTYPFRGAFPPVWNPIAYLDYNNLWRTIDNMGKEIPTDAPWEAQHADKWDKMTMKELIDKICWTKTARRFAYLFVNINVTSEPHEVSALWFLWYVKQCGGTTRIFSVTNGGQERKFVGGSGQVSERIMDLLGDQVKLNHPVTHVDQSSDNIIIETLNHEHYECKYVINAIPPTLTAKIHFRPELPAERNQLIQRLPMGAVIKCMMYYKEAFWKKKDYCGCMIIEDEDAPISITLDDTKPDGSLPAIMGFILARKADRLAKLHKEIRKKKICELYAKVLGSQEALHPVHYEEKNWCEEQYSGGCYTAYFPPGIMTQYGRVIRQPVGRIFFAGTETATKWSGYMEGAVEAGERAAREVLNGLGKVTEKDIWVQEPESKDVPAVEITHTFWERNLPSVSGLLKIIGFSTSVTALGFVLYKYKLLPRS
Experimental: (§1) The reversibility of inhibition of MAO by compound 16 was investigated by dialysis. Dialysis cassettes (Slide-A-Lyzer®; Thermo Scientific) with a volume of 0.5–3 mL and a molecular weight cutoff of 10,000 were used for the dialysis. […] The volume of these mixtures was 0.8 mL, and contained 4% DMSO. The mixtures were pre-incubated for 15 min at 37 °C and then dialyzed at 4 °C in buffer (80 mL), using the above buffer as dialysis buffer. After 3 and 7 h of dialysis, the dialysis buffer was changed with fresh buffer. […] For comparison, incubations of the MAOs and the test inhibitor were prepared as above but were not dialyzed and kept at 4 °C over the same time period. These experiments were carried out in triplicate, and the remaining enzyme catalytic rates are reported as the mean (± SD).

[2] = biological target: T2, human MAO-B (Homo sapiens, UniProt P27338); assay: IC50 determination for MAO-B inhibition (kynuramine, fluorescence); type: biochemical; conditions: for Selectivity index: SI = IC50(MAO-A)/IC50(MAO-B); for IC50: recombinant hMAO-B, kynuramine 50 μM, mean ± SD (triplicate)
T2 construct: purchased Sigma-Aldrich
T2 sequence (P27338 1-520): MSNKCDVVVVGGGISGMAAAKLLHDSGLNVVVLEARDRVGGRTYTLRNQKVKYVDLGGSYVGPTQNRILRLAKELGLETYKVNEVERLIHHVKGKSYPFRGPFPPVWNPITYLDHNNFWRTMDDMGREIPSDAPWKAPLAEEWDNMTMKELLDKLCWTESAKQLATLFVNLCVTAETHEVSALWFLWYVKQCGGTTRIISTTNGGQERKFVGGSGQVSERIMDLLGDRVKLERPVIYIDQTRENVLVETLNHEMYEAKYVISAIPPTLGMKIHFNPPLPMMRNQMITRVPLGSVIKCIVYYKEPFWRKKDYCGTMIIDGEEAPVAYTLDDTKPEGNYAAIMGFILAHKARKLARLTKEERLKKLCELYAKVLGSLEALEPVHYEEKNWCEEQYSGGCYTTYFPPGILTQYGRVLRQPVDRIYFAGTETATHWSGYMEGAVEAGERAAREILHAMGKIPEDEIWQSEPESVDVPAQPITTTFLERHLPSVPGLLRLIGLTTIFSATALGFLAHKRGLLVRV
Experimental: (§2) IC50 values for the inhibition of MAO were determined by using the recombinant human MAO-A and MAO-B enzymes (Sigma-Aldrich). Enzyme reactions were performed at a final volume of 200 µL in white 96-well microplates (Eppendorf), with the reaction solvent consisting of potassium phosphate buffer (100 mM, pH 7.4, adjusted to isotonicity with KCl). The reactions contained the nonselective MAO substrate, kynuramine (50 μM), and the test inhibitors at 0.003–100 µM. The test compounds were initially dissolved in DMSO (100%), and after addition to the reactions yielded a concentration of 4% DMSO. Control reactions were included, which contained substrate and 4% DMSO but no test inhibitor. The MAO reactions were started by adding MAO-A (0.0075 mg protein/mL) or MAO-B (0.015 mg protein/mL), and were subsequently incubated for a period of 20 min (37 °C) in a convection oven. A volume of 80 µL 2 N sodium hydroxide was added to the reactions, and the fluorescence intensity of 4-hydroxyquinoline (the end-product of the MAO-catalyzed metabolism of kynuramine) in the reactions was measured at λex 310 and λem 400 nm. To quantify 4-hydroxyquinoline, a calibration curve (linear) ranging from 0.047 to 1.56 μM, was employed. […] These measurements were carried out in triplicate and the IC50 values are presented as the mean ± standard deviation (SD)[18].
(§3) The formation of the dihydropyridinium species (MMDP^+) as a MAO-catalyzed oxidation product of MMTP was monitored at 420 nm. […] Based on this, the IC50 values were determined using kynuramine as a nonselective substrate. The rate of oxidation of kynuramine by MAO was monitored by measuring the fluorescence of the oxidation product, 4-hydroxyquinoline (λex= 310 nm; λem= 400 nm).

[3] = biological target: T1, human MAO-A; assay: IC50 determination for MAO-A inhibition (kynuramine, fluorescence); type: biochemical; conditions: recombinant hMAO-A, kynuramine 50 μM, mean ± SD (triplicate)
Experimental: as §2, §3

[4] = tested on: Rat hepatoma (H4IIE) cells; assay: Dopamine assay in H4IIE cells (HPLC with electrochemical detection); type: cell-based; conditions: 70 µM compound, 50 µM L-DOPA
Experimental: (§4) Rat hepatoma (H4IIE) cells were purchased from American Type Culture Collection (ATCC). H4IIE cells are from rat liver, and contain both MAO-A and MAO-B in approximately equal levels. Cells were cultured in Eagle’s minimum essential medium (EMEM) supplemented with 10% fetal bovine serum (FBS) and 1% streptomycin/penicillin at 37 °C in a 5% CO2 humidified incubator. Cells were plated at a cell density of 3.0 × 10^5 cells in each well of six well plates. Upon 80% confluence, the cells were washed with phosphate buffered saline (PBS) and the media were changed to HBSS supplemented with 10 mM HEPES and 5 mM D-glucose, pH 7.4. These media also contained calcium chloride (1.26 mM) and magnesium chloride (0.5 mM). Cells were then treated with tolcapone (1 0^−6 M), a catechol-O-methyltransferase (COMT) inhibitor to protect dopamine from enzymatic degradation, 20 min prior to starting the experiment. The cells were treated with the negative vehicle control (1% DMSO) or 70 µM of the MAO-B inhibitors (compounds 12, 14, 16, and 17) with the DMSO concentration also being 1%. The cells were subsequently treated with L-DOPA (50 µM). To measure dopamine release and MAO-B gene expression, both the cells and media were collected at 0, 30, 60, and 120 min after treatment. Dopamine level was measured in the supernatant aspirated from the cells by using high performance liquid chromatography (HPLC), while the cells were lysed with trizol for RNA extraction and subsequent gene expression studies.
Rat hepatoma cells (H4IIE) were treated with 1% DMSO (vehicle-control), compounds 12, 14, 16, or 17 for different time points at a concentration of 70 µM of each compound along with 50uM L-DOPA.
The concentrations of dopamine were detected using a CoulArray electrochemical array detector system as described previously. Briefly, supernatants obtained from cell culture were filtered using 0.22 μm filter. The filtrates were subsequently injected onto a C18 column (3.2 × 150 mm, 3 μm particle size, Thermo Scientific). The mobile phase consisted of a mixture of 54.3 mM sodium phosphate, 0.215 mM octyl sodium sulfate, 0.32 mM citric acid and 11% methanol. Dopamine concentrations were measured with the CoulArray Electrochemical Array Detector. The chromatograms were analyzed using the CoulArray software. A standard calibration curve was determined using different concentrations of an external standard dopamine (SigmaAldrich).
(§5) One-way ANOVA followed by Dunnett’s test (compared to the vehicle-control) was used to analyze the data obtained for the dopamine concentrations for compounds 12, 14, 16, and 17targeting MAO-B at 0, 30, 60, and 120 min. One-way ANOVA followed by Newman–Keuls multiple comparison tests was used to analyze time-dependent effects of compounds 14 and 17 on the relative mRNA expression (triplicate) of MAO-B enzyme.

[5] = tested on: MAO-B mRNA expression; assay: MAO-B mRNA expression in H4IIE cells (qRT-PCR); type: cell-based, rat; conditions: 70 µM
Experimental: as §4
Total RNA was isolated using the Trizol agent (Invitrogen). One μg of RNA from each sample was reverse transcribed to cDNA using the M-MLV reverse transcriptase kit, according to the manufacturer’s instruction (Promega). PowerUp SYBR green master mix (Life technologies) was used for quantitative real-time polymerase chain reaction (qRT-PCR) for analysis of gene expression. The following primers were used (IDTs) MAO-B forward, […]; MAO-B reverse, […]; β-actin forward, […] and β-actin reverse, […]. qRT-PCR was performed in a 384 well plates with the Quant Studio-5 instrument (Applied Biosystems). Samples were carried out in triplicate in a 10 µL reaction volume using the following cycling conditions: UDG activation for one cycle at 50 °C for 2 min, followed by a single cycle at 95 °C for 2 min, then 40 cycles of denaturation at 95 °C for 15 s, and annealing at 60 °C for 1 min. β-actin was used as a loading control and gene expression was calculated using the 2^-ΔΔCT method as described previously.
as §5

[6] = biological target: T1, human MAO-A; assay: Lineweaver-Burk plots and Ki calculation, MAO-A; type: biochemical
Experimental: (§6) Sets of six Lineweaver–Burk plots each were prepared to determine if the inhibition of MAO-A and MAO-B by compound 16 is competitive. […] The substrate, kynuramine, was used at concentrations ranging from 15 to 250 μM, whereas the final enzyme concentration was 0.015 mg protein/mL. […] Ki values were estimated by graphing the slopes of the Lineweaver–Burk plots against inhibitor concentration. The intercept of the x-axis is equal to –Ki.

[7] = biological target: T2, human MAO-B; assay: Lineweaver-Burk plots and Ki calculation, MAO-B; type: biochemical
Experimental: as §6

[8] = biological target: T2, human MAO-B; assay: Reversibility of MAO-B inhibition by dialysis; type: biochemical
Experimental: as §1

[9] = Lineweaver-Burk plots cross on the y-axis
[10] = slopes of Lineweaver-Burk plots vs inhibitor concentration, kynuramine 15-250 μM
[11] = 4 × IC50, incubated 15 min, dialyzed 24 h, compared to negative control (100%)
[12] = 4 × IC50, not dialyzed, compared to negative control (100%)

| Selectivity index [2] | IC50 [2] [µM] | IC50 [3] [µM] | melting point [°C] | Compound | Reversibility of MAO-A inhibition [1] | Dopamine concentration vs vehicle-control ([4]; 30 min) | Dopamine concentration vs vehicle-control ([4]; 60 min) | Dopamine concentration vs vehicle-control ([4]; 120 min) | Relative MAO-B mRNA expression vs negative control ([5]; 0 min) | Relative MAO-B mRNA expression vs negative control ([5]; 30 min) | Relative MAO-B mRNA expression vs negative control ([5]; 60 min) | further results |
| --- | --- | --- | --- | --- | --- | --- | --- | --- | --- | --- | --- | --- |
| – | – | – | – | C#CCN(C)Cc1ccccc1 [Pargyline, reference compound] | dialysis failed to restore catalytic activity | – | – | – | – | – | – | – |
| 13 | 0.069 ± 0.004 | 0.927 ± 0.121 | 172 to 175 | O=C(/C=C/c1ccc([N+](=O)[O-])cc1)c1ccc2c(c1)OCO2 [Compound 17, (E)-1-(benzo[d][1,3]dioxol-5-yl)-3–(4-nitrophenyl)prop-2-en-1-one] | – | increased | elevation | increase | no significant changes | reduced | no significant changes | Relative MAO-B mRNA expression vs 0 min time point ([5]; 30 min exposure): reduced; Relative MAO-B mRNA expression vs 0 min time point ([5]; 60 min exposure): reduced |
| 11 | 0.043 ± 0.004 | 0.506 ± 0.052 | 126 to 130 | O=C(/C=C/c1ccc(F)cc1)c1ccc2c(c1)OCO2 [Compound 14, (E)-1-(benzo[d][1,3]dioxol-5-yl)-3–(4-fluorophenyl)prop-2-en-1-one] | – | increased | elevation | increase | no significant changes | reduced | no significant changes | Relative MAO-B mRNA expression vs negative control ([5]; 120 min): decreased; Relative MAO-B mRNA expression vs 0 min time point ([5]; 120 min exposure): decreased |
| 3.0 | 0.05 ± 0.002 | 0.149 ± 0.011 | – | O=C(/C=C/c1ccc(Cl)cc1)c1ccc2c(c1)OCO2 [Compound 16, (E)-1-(benzo[d][1,3]dioxol-5-yl)-3–(4-chlorophenyl)prop-2-en-1-one] | reversibly inhibits | – | – | – | – | – | – | Mode of MAO-A inhibition [6, 9]: competitive; Ki [6, 10]: 47 nM; Mode of MAO-B inhibition [7, 9]: competitive; Ki [7, 10]: 20 nM; MAO-A activity after dialysis [1, 11]: 103%; MAO-A activity, undialyzed samples [1, 12]: 31%; MAO-B activity after dialysis [8, 11]: 105%; MAO-B activity, undialyzed samples [8, 12]: 34%; Reversibility of MAO-B inhibition ([8]; dialysis 24 h, inhibitor at 4 × IC50): reversibly inhibits |
